Laboratory results published in patent US20260184713A1, “KINASE INHIBITORS” (The United States of America, as represented by the …, priority 2022, published 2026).
Where two headings read alike, the source gives them in different places.

Tests used:
Test in all cases: HOTSPOT radiometric kinase assay
NLK = target: T1, NLK (Homo sapiens, UniProt Q9UBE8); format: biochemical; conditions: 10 μM ATP
T1 construct: purchased Reaction Biology Corp

IRAK2 = target: T2, IRAK2 (Homo sapiens, UniProt O43187); format: biochemical; conditions: 10 μM ATP
T2 construct: purchased Reaction Biology Corp
T2 sequence (O43187 whole entry): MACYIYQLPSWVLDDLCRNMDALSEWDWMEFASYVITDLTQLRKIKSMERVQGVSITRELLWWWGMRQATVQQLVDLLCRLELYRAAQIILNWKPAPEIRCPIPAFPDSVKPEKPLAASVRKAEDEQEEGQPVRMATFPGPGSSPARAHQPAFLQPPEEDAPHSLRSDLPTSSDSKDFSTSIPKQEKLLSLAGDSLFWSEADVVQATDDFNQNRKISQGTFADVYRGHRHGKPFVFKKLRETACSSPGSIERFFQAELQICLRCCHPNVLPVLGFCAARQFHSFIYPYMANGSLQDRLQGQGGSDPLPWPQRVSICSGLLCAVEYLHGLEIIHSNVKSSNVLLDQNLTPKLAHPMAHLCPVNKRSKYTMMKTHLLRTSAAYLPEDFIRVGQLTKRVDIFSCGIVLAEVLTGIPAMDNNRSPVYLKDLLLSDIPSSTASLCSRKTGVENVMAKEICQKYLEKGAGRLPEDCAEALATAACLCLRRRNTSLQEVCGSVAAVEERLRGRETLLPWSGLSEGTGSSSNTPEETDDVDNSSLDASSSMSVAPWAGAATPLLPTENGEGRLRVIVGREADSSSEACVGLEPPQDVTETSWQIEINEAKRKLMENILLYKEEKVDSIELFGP

MPSK1 = target: T3, MPSK1 (Homo sapiens, UniProt O75716); format: biochemical; conditions: 10 μM ATP
T3 construct: purchased Reaction Biology Corp
T3 sequence (O75716 whole entry): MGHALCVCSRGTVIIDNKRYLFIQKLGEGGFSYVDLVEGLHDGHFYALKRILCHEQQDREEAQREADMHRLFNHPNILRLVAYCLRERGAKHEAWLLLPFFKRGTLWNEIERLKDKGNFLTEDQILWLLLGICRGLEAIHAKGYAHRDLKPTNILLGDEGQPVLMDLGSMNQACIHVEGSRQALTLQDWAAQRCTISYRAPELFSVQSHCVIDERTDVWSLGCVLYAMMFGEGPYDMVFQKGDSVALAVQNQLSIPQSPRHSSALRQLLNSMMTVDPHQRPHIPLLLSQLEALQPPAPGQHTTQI

CK1α1 = CK1α1 (Homo sapiens, UniProt P48729)
CK1α1, sequence (P48729 whole entry): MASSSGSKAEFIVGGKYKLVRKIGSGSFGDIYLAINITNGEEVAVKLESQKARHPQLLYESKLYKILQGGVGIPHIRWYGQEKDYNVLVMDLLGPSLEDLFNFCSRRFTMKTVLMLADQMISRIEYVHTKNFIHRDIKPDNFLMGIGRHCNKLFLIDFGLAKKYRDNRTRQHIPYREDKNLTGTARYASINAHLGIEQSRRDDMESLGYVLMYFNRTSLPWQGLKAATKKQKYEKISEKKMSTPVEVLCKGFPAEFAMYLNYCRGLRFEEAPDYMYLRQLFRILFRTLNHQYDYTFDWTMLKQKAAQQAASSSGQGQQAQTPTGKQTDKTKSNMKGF

BMX = target: T4, BMX (Homo sapiens, UniProt P51813); format: biochemical; conditions: 10 μM ATP
T4 construct: purchased Reaction Biology Corp
T4 sequence (P51813 whole entry): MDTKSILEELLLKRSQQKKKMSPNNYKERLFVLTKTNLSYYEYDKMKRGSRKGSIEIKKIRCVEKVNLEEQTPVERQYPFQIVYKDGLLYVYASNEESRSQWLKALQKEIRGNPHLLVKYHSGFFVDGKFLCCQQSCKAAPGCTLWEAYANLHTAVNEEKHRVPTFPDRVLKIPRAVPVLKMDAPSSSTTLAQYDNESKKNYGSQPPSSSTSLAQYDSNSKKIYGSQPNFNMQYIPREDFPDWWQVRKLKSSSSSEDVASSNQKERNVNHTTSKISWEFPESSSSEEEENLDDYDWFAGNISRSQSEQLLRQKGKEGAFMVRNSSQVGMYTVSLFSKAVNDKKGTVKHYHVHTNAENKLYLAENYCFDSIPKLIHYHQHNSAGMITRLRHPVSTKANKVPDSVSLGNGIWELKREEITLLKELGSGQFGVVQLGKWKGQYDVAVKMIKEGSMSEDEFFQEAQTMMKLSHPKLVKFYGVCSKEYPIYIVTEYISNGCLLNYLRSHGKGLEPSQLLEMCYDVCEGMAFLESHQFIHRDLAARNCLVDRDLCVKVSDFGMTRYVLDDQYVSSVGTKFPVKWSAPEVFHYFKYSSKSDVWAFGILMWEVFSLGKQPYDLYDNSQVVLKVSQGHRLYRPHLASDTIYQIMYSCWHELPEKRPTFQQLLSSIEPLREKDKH

DYRK2 = target: T5, DYRK2 (Homo sapiens, UniProt Q92630); format: biochemical
T5 construct: purchased Reaction Biology Corp
T5 sequence (Q92630 1-601): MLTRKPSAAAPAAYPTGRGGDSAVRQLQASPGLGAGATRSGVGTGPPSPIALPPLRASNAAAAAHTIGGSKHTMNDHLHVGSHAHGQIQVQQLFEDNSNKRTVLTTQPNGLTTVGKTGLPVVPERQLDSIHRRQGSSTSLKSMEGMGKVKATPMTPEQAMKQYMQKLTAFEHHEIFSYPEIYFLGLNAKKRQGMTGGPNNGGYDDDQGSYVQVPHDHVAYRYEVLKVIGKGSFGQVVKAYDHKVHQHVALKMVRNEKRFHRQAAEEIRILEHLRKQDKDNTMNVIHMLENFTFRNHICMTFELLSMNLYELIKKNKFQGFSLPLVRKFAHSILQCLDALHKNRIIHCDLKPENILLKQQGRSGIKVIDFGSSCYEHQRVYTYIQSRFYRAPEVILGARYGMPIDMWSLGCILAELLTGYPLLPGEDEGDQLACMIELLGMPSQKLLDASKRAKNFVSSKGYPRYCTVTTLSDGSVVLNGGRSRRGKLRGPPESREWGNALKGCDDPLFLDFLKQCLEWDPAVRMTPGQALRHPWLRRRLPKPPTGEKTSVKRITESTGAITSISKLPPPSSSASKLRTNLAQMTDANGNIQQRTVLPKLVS

PKCα = PKCα (Homo sapiens, UniProt P17252)
DYRK1A = target: T6, DYRK1A (Homo sapiens, UniProt Q13627); format: biochemical
T6 construct: purchased Reaction Biology Corp

smMLCK = target: T7, smMLCK (Homo sapiens, UniProt Q15746); format: biochemical; conditions: 10 μM ATP
T7 construct: purchased Reaction Biology Corp

CDK2 = target: T8, CDK2 (Homo sapiens, UniProt P24941); format: biochemical; conditions: 10 μM ATP
T8 construct: purchased Reaction Biology Corp

DYRK4 = target: T9, DYRK4 (Homo sapiens, UniProt Q9NR20); format: biochemical; conditions: 10 μM ATP
T9 construct: purchased Reaction Biology Corp

PKCδ = target: T10, PKCδ (Homo sapiens, UniProt Q05655); format: biochemical
T10 construct: purchased Reaction Biology Corp
T10 sequence (Q05655 whole entry): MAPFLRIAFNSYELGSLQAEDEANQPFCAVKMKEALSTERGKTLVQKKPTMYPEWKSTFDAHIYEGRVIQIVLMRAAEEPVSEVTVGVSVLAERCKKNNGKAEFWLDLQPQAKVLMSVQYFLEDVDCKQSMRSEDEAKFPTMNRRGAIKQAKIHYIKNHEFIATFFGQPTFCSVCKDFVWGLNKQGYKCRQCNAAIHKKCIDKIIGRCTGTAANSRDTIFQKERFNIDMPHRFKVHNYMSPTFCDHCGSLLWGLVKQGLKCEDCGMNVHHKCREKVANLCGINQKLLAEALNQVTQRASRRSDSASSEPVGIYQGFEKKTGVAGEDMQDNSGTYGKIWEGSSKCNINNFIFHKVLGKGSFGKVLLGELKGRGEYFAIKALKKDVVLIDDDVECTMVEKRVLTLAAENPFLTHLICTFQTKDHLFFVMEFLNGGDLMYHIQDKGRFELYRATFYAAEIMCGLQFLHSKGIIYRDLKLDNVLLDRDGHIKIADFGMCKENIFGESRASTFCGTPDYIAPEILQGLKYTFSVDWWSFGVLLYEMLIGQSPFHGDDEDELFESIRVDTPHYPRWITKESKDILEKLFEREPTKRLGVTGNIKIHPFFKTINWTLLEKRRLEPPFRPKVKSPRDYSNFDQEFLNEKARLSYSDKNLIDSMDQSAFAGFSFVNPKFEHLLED

PKCθ = target: T11, PKCθ (Homo sapiens, UniProt Q04759); format: biochemical; conditions: 2 μM, 10 μM ATP
T11 construct: purchased Reaction Biology Corp

P70S6K = target: T12, P70S6K (Homo sapiens, UniProt P23443); format: biochemical; conditions: 10 μM ATP
T12 construct: purchased Reaction Biology Corp

STK39/STLK3 = target: T13, STK39/STLK3 (Homo sapiens, UniProt Q9UEW8); format: biochemical; conditions: 2 μM, 10 μM ATP
T13 construct: purchased Reaction Biology Corp

MSK2 = target: T14, MSK2 (Homo sapiens, UniProt O75676); format: biochemical; conditions: 10 μM ATP
T14 construct: purchased Reaction Biology Corp
T14 sequence (O75676 whole entry): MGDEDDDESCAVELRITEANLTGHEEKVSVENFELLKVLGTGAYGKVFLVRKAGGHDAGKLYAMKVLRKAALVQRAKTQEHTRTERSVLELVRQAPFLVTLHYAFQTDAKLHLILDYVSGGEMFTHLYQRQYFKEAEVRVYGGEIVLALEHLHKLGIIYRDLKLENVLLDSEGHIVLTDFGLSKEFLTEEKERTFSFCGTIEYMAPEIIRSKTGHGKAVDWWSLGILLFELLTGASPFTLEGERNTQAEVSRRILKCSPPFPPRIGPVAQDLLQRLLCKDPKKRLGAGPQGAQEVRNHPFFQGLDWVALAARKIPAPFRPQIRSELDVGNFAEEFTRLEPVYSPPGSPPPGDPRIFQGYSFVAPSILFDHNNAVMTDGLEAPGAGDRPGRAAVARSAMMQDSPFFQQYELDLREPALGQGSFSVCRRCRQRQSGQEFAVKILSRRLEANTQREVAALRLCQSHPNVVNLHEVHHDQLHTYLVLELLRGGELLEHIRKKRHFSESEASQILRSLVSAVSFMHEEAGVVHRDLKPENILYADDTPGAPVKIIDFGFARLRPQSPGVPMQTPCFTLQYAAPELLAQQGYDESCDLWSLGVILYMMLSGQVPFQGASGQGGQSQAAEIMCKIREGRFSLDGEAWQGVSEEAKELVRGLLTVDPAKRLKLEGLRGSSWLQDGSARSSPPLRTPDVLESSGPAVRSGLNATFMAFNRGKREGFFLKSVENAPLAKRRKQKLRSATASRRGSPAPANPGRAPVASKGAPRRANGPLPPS

CLK1 = target: T15, CLK1 (Homo sapiens, UniProt P49759); format: biochemical; conditions: 2 μM, 10 μM ATP
T15 construct: purchased Reaction Biology Corp

LATS2 = target: T16, LATS2 (Homo sapiens, UniProt Q9NRM7); format: biochemical; conditions: 10 μM ATP
T16 construct: purchased Reaction Biology Corp
T16 sequence (Q9NRM7 whole entry): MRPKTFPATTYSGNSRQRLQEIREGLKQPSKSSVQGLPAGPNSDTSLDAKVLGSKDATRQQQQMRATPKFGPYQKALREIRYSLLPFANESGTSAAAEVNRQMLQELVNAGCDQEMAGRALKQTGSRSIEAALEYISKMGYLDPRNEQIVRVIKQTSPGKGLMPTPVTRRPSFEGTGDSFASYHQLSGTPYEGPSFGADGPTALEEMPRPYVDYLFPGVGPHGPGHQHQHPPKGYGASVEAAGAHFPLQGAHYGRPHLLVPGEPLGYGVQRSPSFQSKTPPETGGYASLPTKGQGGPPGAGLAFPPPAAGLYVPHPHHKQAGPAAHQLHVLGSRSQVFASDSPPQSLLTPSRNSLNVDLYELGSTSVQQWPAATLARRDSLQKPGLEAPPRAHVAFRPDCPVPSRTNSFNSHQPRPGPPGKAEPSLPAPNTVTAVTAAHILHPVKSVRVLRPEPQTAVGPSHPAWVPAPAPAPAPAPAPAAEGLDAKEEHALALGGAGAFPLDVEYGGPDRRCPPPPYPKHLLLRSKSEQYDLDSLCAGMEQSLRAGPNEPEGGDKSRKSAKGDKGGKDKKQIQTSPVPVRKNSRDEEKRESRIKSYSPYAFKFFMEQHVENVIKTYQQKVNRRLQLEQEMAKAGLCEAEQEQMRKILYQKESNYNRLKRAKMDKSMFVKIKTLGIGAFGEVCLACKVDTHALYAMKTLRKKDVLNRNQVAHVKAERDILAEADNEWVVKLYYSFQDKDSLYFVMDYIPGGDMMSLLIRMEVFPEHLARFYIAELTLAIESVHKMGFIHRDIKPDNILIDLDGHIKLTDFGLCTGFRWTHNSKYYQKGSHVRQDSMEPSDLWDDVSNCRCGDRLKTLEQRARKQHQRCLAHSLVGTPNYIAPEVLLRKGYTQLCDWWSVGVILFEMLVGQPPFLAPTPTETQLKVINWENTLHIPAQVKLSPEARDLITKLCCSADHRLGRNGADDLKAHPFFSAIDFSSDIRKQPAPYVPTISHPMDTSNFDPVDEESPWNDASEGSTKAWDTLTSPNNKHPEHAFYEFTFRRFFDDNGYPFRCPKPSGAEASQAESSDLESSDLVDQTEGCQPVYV

PKD2 = target: T17, PKD2 (Homo sapiens, UniProt Q9BZL6); format: biochemical; conditions: 10 μM ATP
T17 construct: purchased Reaction Biology Corp

FLT1/VEGFR1 = FLT1/VEGFR1 (Homo sapiens, UniProt P17948)
PKG2 = target: T18, PKG2 (Homo sapiens, UniProt Q13237); format: biochemical; conditions: 10 μM ATP
T18 construct: purchased Reaction Biology Corp

T1 sequence (Q9UBE8 whole entry): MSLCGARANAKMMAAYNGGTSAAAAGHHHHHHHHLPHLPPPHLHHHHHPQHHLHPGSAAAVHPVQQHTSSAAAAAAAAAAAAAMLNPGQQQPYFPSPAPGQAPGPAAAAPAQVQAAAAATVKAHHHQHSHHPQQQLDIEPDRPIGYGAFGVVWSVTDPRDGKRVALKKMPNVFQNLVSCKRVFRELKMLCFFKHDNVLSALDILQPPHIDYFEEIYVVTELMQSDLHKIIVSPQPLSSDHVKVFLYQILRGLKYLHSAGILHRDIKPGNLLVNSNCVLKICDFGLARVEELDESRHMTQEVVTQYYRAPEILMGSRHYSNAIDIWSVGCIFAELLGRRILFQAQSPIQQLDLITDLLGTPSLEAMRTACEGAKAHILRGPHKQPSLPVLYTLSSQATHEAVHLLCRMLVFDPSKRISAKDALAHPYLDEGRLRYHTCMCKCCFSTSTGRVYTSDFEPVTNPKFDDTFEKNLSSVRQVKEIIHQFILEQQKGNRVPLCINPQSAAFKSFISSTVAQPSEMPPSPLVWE

Cn1cncc1C1=CN(c2ncnc3nc[nH]c23)CCS1 [Compound 1, Aplithianine A]
inhibition at 0.05 µM (NLK; 50 nM): 19.6% | inhibition at 2 µM (NLK; 2 μM): 43% | inhibition at 0.05 µM (IRAK2; 50 nM): 30.7% | inhibition at 2 µM (IRAK2; 2 μM): 85% | inhibition at 0.05 µM (MPSK1; 50 nM): 22% | inhibition at 2 µM (MPSK1; 2 μM): 49.5% | IC50 (CK1α1): 800 to 6600 nM | IC50 (CK1α1; read-out: CK1α1 IC50, 10 μM ATP): 1830 nM | inhibition at 0.05 µM (BMX; 50 nM): 13.9% | inhibition at 2 µM (BMX; 2 μM): 40% | inhibition at 0.05 µM (DYRK2; 50 nM, 10 μM ATP): 20.6% | inhibition at 2 µM (DYRK2; 2 μM, 10 μM ATP): 91.2% | IC50 (DYRK2; 10 μM ATP, read-out: DYRK2 IC50): 142 nM | DYRK2 Differential (as compared to PKG1a) (DYRK2; IC50 (kinase)/IC50 (PKG1a)): 13.27 | IC50 (DYRK2; Table 4 dose-response, read-out: DYRK2 IC50 Values): 151 nM | IC50 (PKCα): 800 to 6600 nM | IC50 (PKCα; read-out: PKCα IC50, 10 μM ATP): 1320 nM | inhibition at 0.05 µM (DYRK1A; 50 nM, 10 μM ATP): 23.1% | inhibition at 2 µM (DYRK1A; 2 μM, 10 μM ATP): 95.4% | IC50 (DYRK1A; 10 μM ATP, read-out: DYRK1A IC50): 119 nM | DYRK1A Differential (as compared to PKG1a) (DYRK1A; IC50 (kinase)/IC50 (PKG1a)): 10.01 | IC50 (DYRK1A; Table 4 dose-response, read-out: DYRK1A IC50 Values): 114 nM | inhibition at 0.05 µM (smMLCK; 50 nM): 18.2% | inhibition at 2 µM (smMLCK; 2 μM): 91.1% | inhibition at 0.05 µM (CDK2; 50 nM): 12.6% | inhibition at 2 µM (CDK2; 2 μM): 49.1% | IC50 (DYRK4): 15200 nM | inhibition at 0.05 µM (PKCδ; 50 nM, 10 μM ATP): 12.6% | inhibition at 2 µM (PKCδ; 2 μM, 10 μM ATP): 81.1% | IC50 (PKCδ; 10 μM ATP, read-out: PKCδ IC50): 184 nM | PKCd Differential (as compared to PKG1a) (PKCδ; IC50 (kinase)/IC50 (PKG1a)): 16.77 | IC50 (PKCδ; Table 4 dose-response, read-out: PKCd IC50 Values): 191 nM | inhibition at 2 µM (PKCθ): 97.9% | inhibition at 0.05 µM (P70S6K; 50 nM): 14% | inhibition at 2 µM (P70S6K; 2 μM): 87.3% | inhibition at 2 µM (STK39/STLK3): 87.3% | inhibition at 0.05 µM (MSK2; 50 nM): 13.3% | inhibition at 2 µM (MSK2; 2 μM): 75.5% | inhibition at 2 µM (CLK1): 97.3% | inhibition at 0.05 µM (LATS2; 50 nM): 34.2% | inhibition at 2 µM (LATS2; 2 μM): 92.9% | inhibition at 0.05 µM (PKD2; 50 nM): 38.2% | inhibition at 2 µM (PKD2; 2 μM): 93.1% | IC50 (FLT1/VEGFR1): 18000 to 65000 nM | IC50 (FLT1/VEGFR1; read-out: FLT1/VEGFR1 IC50, 10 μM ATP): 18800 nM | inhibition at 2 µM (PKG2): 99.4%
